Reference: article PMC11110795, “Design, synthesis and antimycobacterial activity of imidazo[1,5-a]quinolines and their zinc-complexes” (RSC Medicinal Chemistry, 2024)
Values after ≈ are worked out from the molar mass of the structure shown. Like-named read-outs stand apart in the source and are kept apart here.

Key:
[1] = test system: Staphylococcus aureus ATCC33592; experiment: MIC, microtiter turbidity test; type: cell-based; conditions: read-out: MIC Sa
[2] = test system: Escherichia coli ATCC35218; experiment: MIC, microtiter turbidity test; type: cell-based
[3] = test system: Mycobacterium tuberculosis H37Ra; experiment: MIC, BacTiter-Glo ATP quantification, surrogate Mtb strain; type: cell-based; conditions: for MIC Mtb: Mycobacterium tuberculosis H37Ra, 7H9-palmitate, 7 days, BacTiter-Glo, n=3; for MIC: Mycobacterium tuberculosis, H37RA, 168 h, read-out: MIC Mtb, Mycobacterium tuberculosis H37Ra, 7H9-palmitate, 7 days, BacTiter-Glo, n=3
Description: The antimicrobial effect of the 21 synthesized compounds was initially accessed against a panel of 4 microbial indicator strains (Escherichia coli ATCC35218, Staphylococcus aureus ATCC33592, Septoria tritici MUCL45408 and Mycobacterium tuberculosis H37Ra). Cytotoxicity was investigated using an epithelia cell line from human lung carcinoma (Calu-3).
The minimum inhibitory concentration (MIC) of the […] compounds 5a-i, 6a-b,7a, 8a and C1-8 was determined as previously described with only minor changes. 6,7 Briefly, the cell density of an overnight cultures of Escherichia coli ATCC35218 and Staphylococcus aureus […] was diluted to 5 × 10^5 cells/mL in cation adjusted Mueller Hinton II medium (Becton Dickinson, Sparks, NV, USA) and distributed into 96-well plates. Three 12-point dilution series of rifampicin, tetracycline and gentamicin ranging from 64 - 0.03 µg/mL (all Sigma Aldrich, St. Louis, MO, USA), respectively, were used as positive controls. All tested compounds were dissolved in dimethyl sulfoxide (DMSO, Carl Roth GmbH + Co., Karlsruhe, Germany) and tested in triplicate at the same concentrations as the positive controls.
Bacterial suspensions without test compound or positive control were used as negative controls.
Medium background was averaged from 5 replicates. Assay incubation was done at 37°C, 180rpm and 85% relative humidity. The turbidity of each well was measured with a microplate spectrophotometer at 600 nm (LUMIstar® Omega BMG Labtech, Ortenberg, Germany). Growth inhibition was calculated relative to the absorption of the controls.
For S. tritici MUCL45408, a previously prepared spore solution was used to adjust the assay inoculum to 1 × 10^5 spores/mL in potato dextrose medium (Sigma Aldrich). Septoria assay plates were incubated for 4 days at 25°C, 180 rpm and 85% rH. Tebuconazole (Cayman Chemical Company, Ann Arbor, MI, USA) and amphotericin B (Sigma Aldrich) were used as positive control. Cell viability was evaluated via ATP quantification (BacTiter-Glo™, Promega, Walldorf, Germany) according to the manufacturer’s […]
Mycobacterium tuberculosis ITM-M006710 H37Ra (ATCC 9431) was incubated for 14 days in Middlebrook 7H9 broth (from ThermoFisher Scientific, Walthman, MA, USA) supplemented with 5.6 µg/mL palmitic acid (Sigma Aldrich), 1 mg/mL casitone (ThermoFisher Scientific), 5mg/mL BSA, 4µg/mL catalase (Sigma Aldrich), and 0.2% glycerol at 37°C, 180 rpm and 85% rH. In a first step, the culture was diluted to McFarland standard of 1, before the final inoculum density of a 1 × 10^6 cells/mL was obtained by further dilution with freshly prepared medium. Individual 12-point dilution series of rifampicin, ampicillin and gentamicin (ranging from 64-0.03 µg/mL) were used as positive controls. The assay plates were incubated for 7 days under microaerophilic conditions at 37°C/5% CO2 (BD gaspak CO2 system) and read-out was done by ATP quantification (s. above).
The MIC was defined as the minimum concentration where at least 85% growth inhibition relative to the negative control was measured. Relative inhibition for the microtiter turbidity tests (MTT) were […]
rel. inh.% = 100 * [1- (AU sample - AU Low)/(AU High - AU Low)]
AU: absorption unit at 600nm; Low: medium blank; High: negative control of maximal growth.
Accordingly, the BacTiter-Glo™ (BTG) assays were calculated as rel. inh.% = 100 * [1- (LU sample - LU Low)/(LU High - LU Low)]
AU: luminescence unit; Low: medium blank; High: negative control of maximal growth.
For Mycobacterium tuberculosis ATCC 35801 a resazurin microtiter assay was carried out as previously described8 Briefly, assay plates were set up by transferring 10 µl of compounds form a 1:2-fold dilution series in distilled and sterile water to a 96-well plate. The final assay´s concentrations range from 0.39-100 µM and as positive and negative control 5 µM rifampicin and 0.5% DMSO were used. Subsequently a bacterial suspension with Mycobacterium tuberculosis with a final OD560 of 0.0003 was prepared in […]

[4] = test system: Septoria tritici MUCL45408; experiment: MIC, BacTiter-Glo ATP quantification; type: cell-based; conditions: read-out: MIC Str
[5] = test system: Mycobacterium tuberculosis ATCC 35801; experiment: Resazurin microtiter assay, second-tier BSL-3; type: cell-based
in vitro = conditions: human
various Mtb strains = test system: various Mtb strains; design: method as in PMID 27654337, PMID 29900893, PMID 36934122, PMID 32750539; conditions: cited from earlier work
[6] = Staphylococcus aureus ATCC33592 (MRSA), MHII medium, turbidity at 600 nm, n=3
[7] = Staphylococcus aureus, ATCC 33592 / MRSA
[8] = Escherichia coli ATCC35218, MHII medium, turbidity at 600 nm, n=3, read-out: MIC Ec
[9] = Escherichia coli, ATCC35218, read-out: MIC Ec
[10] = Septoria tritici MUCL45408, PDB medium, 4 days, BacTiter-Glo, n=3
[11] = Zymoseptoria tritici, MUCL45408, 96 h
[12] = ATCC 33592 / MRSA, Staphylococcus aureus ATCC33592 (MRSA), MHII medium, turbidity at 600 nm, n=3
[13] = Zymoseptoria tritici, 96 h, Septoria tritici MUCL45408, PDB medium, 4 days, BacTiter-Glo, n=3

c1ccc(-c2nc(-c3cccs3)c3ccc4ccccc4n23)cc1 [5a]
MIC [1, 6]: >196 µM | MIC [1, 7]: > 196 µM | MIC [2, 8]: >196 µM | MIC [2, 9]: > 196 µM | MIC Mtb [3]: >196 µM | MIC [3]: > 196 µM | MIC [4, 10]: >196 µM | MIC [4, 11]: > 196 µM

c1ccc(-c2nc(-c3ccccc3)n3c2ccc2ccccc23)cc1 [5b]
MIC [1, 12]: > 200 µM | MIC [1, 6]: >200 µM | MIC [2, 8]: >200 µM | MIC Mtb [3]: >200 µM | MIC [3]: > 200 µM | MIC [4, 10]: >200 µM | MIC [4, 13]: > 200 µM

c1ccc(-c2nc(-c3ccccn3)c3ccc4ccccc4n23)cc1 [5c]
MIC [1, 12]: > 199 µM | MIC [1, 6]: >199 µM | MIC [2, 8]: >199 µM | MIC [3]: 25 µM (≈ 8.03 µg/mL) | MIC [4, 10]: >199 µM | MIC [4, 13]: > 199 µM

c1ccc(-c2nc(-c3nccc4ccccc34)c3ccc4ccccc4n23)cc1 [5d]
MIC [1, 12]: > 172 µM | MIC [1, 6]: >172 µM | MIC [2, 8]: >172 µM | MIC [4, 10]: >172 µM | MIC [4, 13]: > 172 µM

c1ccc(-c2nc(-c3ncccn3)c3ccc4ccccc4n23)cc1 [5e]
MIC [1, 12]: > 148 µM | MIC [1, 6]: >148 µM | MIC [2, 8]: >148 µM | MIC [3]: 1 µM (≈ 0.322 µg/mL) | MIC [4, 10]: >148 µM | MIC [4, 13]: > 148 µM

c1ccc(-c2ccc(-c3nc(-c4ccccc4)n4c3ccc3ccccc34)nc2)cc1 [5f]
MIC [1, 12]: > 136 µM | MIC [1, 6]: >136 µM | MIC [2, 8]: >136 µM | MIC [3]: 34 µM (≈ 13.5 µg/mL) | MIC [4, 10]: >136 µM | MIC [4, 13]: > 136 µM

c1ccc(-c2nc(-c3cc4ccccc4cn3)c3ccc4ccccc4n23)cc1 [5g]
MIC [1, 12]: > 144 µM | MIC [1, 6]: >144 µM | inhibition at 20 µM ([5]; ATCC35801, Mtb ATCC 35801, 20 μM): 82% | IC90 ([5]; ATCC35801, read-out: IC90 Mtb ATCC 35801, resazurin, 7 days + 24 h): 132 µM | IC50 ([5]; ATCC35801, resazurin, 7 days + 24 h, read-out: IC50 Mtb ATCC 35801): 86.5 µM | IC90 ([5]; ATCC35801, resazurin, 7 days + 24 h, read-out: IC90 Mtb ATCC 35801): 136 µM | MIC [2, 8]: >144 µM | IC50 at 3 days (in vitro): > 100 µM | MIC [3]: ≤ 2 µM | MIC [4, 10]: >144 µM | MIC [4, 13]: > 144 µM

CN(C)c1ccccc1-c1nc(-c2ccccc2)n2c1ccc1ccccc12 [5h]
MIC [1, 12]: > 127 µM | MIC [1, 6]: >127 µM | MIC [2, 8]: >127 µM | MIC [3]: 2 µM (≈ 0.727 µg/mL) | MIC [4, 10]: >127 µM | MIC [4, 13]: > 127 µM

COc1ccccc1-c1nc(-c2ccccc2)n2c1ccc1ccccc12 [5i]
MIC [1, 12]: > 183 µM | MIC [1, 6]: >183 µM | MIC [2, 8]: >183 µM | MIC [3]: 46 µM (≈ 16.1 µg/mL) | MIC [4, 10]: >183 µM | MIC [4, 13]: > 183 µM

c1ccc(-c2nc(-c3ccccn3)n3c2ccc2ccccc23)nc1 [6a]
MIC [1, 12]: > 198 µM | MIC [1, 6]: >198 µM | MIC [2, 8]: >198 µM | MIC [4, 10]: >198 µM | MIC [4, 13]: > 198 µM

c1ccc(-c2nc(-c3ccccn3)n3c2ccc2ccccc23)cc1 [6b]
MIC [1, 12]: > 199 µM | MIC [1, 6]: >199 µM | MIC [2, 8]: >199 µM | MIC [4, 10]: >199 µM | MIC [4, 13]: > 199 µM

c1ccc(-c2nc(-c3cccc4ccccc34)n3c2ccc2ccccc23)nc1 [7a]
MIC [1, 12]: > 172 µM | MIC [1, 6]: >172 µM | MIC [2, 8]: >172 µM | MIC [4, 10]: >172 µM | MIC [4, 13]: > 172 µM

c1ccc(N(c2ccccc2)c2nc(-c3ccccn3)c3ccc4ccccc4n23)cc1 [8a]
MIC [1, 6]: >155 µM | MIC [1, 7]: > 155 µM | MIC [2, 8]: >155 µM | MIC [2, 9]: > 155 µM | MIC Mtb [3]: >155 µM | MIC [3]: > 155 µM | MIC [4, 10]: >155 µM | MIC [4, 11]: > 155 µM

C[C@@H]1[C@H](O)[C@@H](C)/C=C/C=C/C=C/C=C/C=C/C=C/C=C/[C@H](O[C@@H]2O[C@H](C)[C@@H](O)[C@H](N)[C@@H]2O)C[C@@H]2O[C@](O)(C[C@@H](O)C[C@@H](O)[C@H](O)CC[C@@H](O)C[C@@H](O)CC(=O)O[C@H]1C)C[C@H](O)[C@H]2C(=O)O [AMB, amphotericin B, reference compound]
MIC [4, 13]: 0.135 µM (≈ 0.125 µg/mL)

CC1(C)S[C@@H]2[C@H](NC(=O)[C@H](N)c3ccccc3)C(=O)N2[C@H]1C(=O)O [AMP, ampicillin, reference compound]
MIC [3]: 184 µM (≈ 64.3 µg/mL)

CC(=O)[O-].CC(=O)[O-].[Cu+2] [Cu(OAc)2, reference compound]
MIC Mtb [3]: 43 µM

[Cl][Fe]([Cl])[Cl] [FeCl3, reference compound]
MIC [1, 6]: > 394 µM | MIC [2, 8]: > 394 µM | MIC Mtb [3]: > 394 µM

CC(C)(C)C(O)(CCc1ccc(Cl)cc1)Cn1cncn1 (stereo not shown) [TEB, tebuconazole, reference compound]
MIC [4, 11]: > 0.01 µM

[Cl-].[Cl-].[Zn+2] [ZnCl2, reference compound]
MIC [1, 6]: > 470 µM | MIC [2, 8]: > 470 µM | MIC Mtb [3]: 235 µM

NCC[C@H](O)C(=O)N[C@@H]1C[C@H](N)[C@@H](O[C@H]2O[C@H](CN)[C@@H](O)[C@H](O)[C@H]2O)[C@H](O)[C@H]1O[C@H]1O[C@H](CO)[C@@H](O)[C@H](N)[C@H]1O [amikacin]
MIC, literature reported values (various Mtb strains): 0.4 to 1.7 µM

COc1nc2ccc(Br)cc2cc1[C@@H](c1ccccc1)[C@@](O)(CCN(C)C)c1cccc2ccccc12 [bendaquiline]
MIC, literature reported values (various Mtb strains): 0.03 to 1 µM

CC[C@@H](CO)NCCN[C@@H](CC)CO [ethambutol]
MIC, literature reported values (various Mtb strains): 0.3 to 3 µM

CNC(C)C1CCC(N)C(OC2C(N)CC(N)C(OC3OCC(C)(O)C(NC)C3O)C2O)O1 (stereo not shown) [gentamicin, reference compound]
MIC [3]: 4 µM (≈ 1.91 µg/mL)

NNC(=O)c1ccncc1 [isoniazid]
MIC, literature reported values (various Mtb strains): 0.3 to 1.4 µM

C[C@H]1COc2c(N3CCN(C)CC3)c(F)cc3c(=O)c(C(=O)O)cn1c23 [levofloxacin]
MIC, literature reported values (various Mtb strains): 0.8 to 1.4 µM

CO[C@H]1/C=C/O[C@@]2(C)Oc3c(C)c(O)c4c(O)c(c(/C=N/N5CCN(C)CC5)c(O)c4c3C2=O)NC(=O)/C(C)=C\C=C\[C@H](C)[C@H](O)[C@@H](C)[C@@H](O)[C@@H](C)[C@H](OC(C)=O)[C@@H]1C [rifampicin, reference compound]
MIC [1, 12]: > 78 µM | MIC [2, 8]: 5 µM (≈ 4.11 µg/mL) | MIC [3]: 0.07 µM (≈ 0.0576 µg/mL)
